Assay results reported in patent US11919901B2 (Syndax Pharmaceuticals, Inc., priority 2021, dated 2024).

What follows are compounds tested on MV4-11 cells (assay: Cell proliferation assay MV4;11 (CellTiter-Glo, 72 hours)). Conditions: Homo sapiens, MV4-11, 72 h, read-out: MV4; 11 IC50 (nM).
Assay type: cell-based
Outline: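 MV4-11 cells (MLL1-AF4 fusion) exposed 72 h at 37 °C to 8 compound concentrations, final 0.632–2000 nM. Viability by CellTiter-Glo luminescence as % of vehicle RLU; % max inhibition = 100 − viability at top concentration.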
For CC(C)N(CC(F)F)C(=O)c1cc(F)ccc1Oc1cncnc1N1CC2(CCN(C[C@@H]3CC[C@@H](NS(=O)(=O)NCC(F)F)CO3)CC2)C1 [Example 235, N-(2,2-Difluoroethyl)-2-((4-(7-(((2S,5R)-5-((N-(2,2-difluoroethyl)sulfamoyl)amino)tetrahydro-2H-pyran-2-yl)methyl)-2,7-diazaspiro[3.5]nonan-2-yl)pyrimidin-5-yl)oxy)-5-fluoro-N-isopropylbenzamide], the IC50 was less than 100 nM.

Same assay, conditions: Homo sapiens; MV4;11 leukemia cell line, 72 hours; read-out: MV4; 11 IC50
CCNS(=O)(=O)N[C@@H]1CC[C@@H](CN2CCC3(CC2)CN(c2ncnnc2Oc2ccc(F)cc2C(=O)N(C(C)C)C(C)C)C3)OC1 [Example 198, 2-((5-(7-(((2S,5R)-5-((N-Ethylsulfamoyl)amino)tetrahydro-2H-pyran-2-yl)methyl)-2,7-diazaspiro[3.5]nonan-2-yl)-1,2,4-triazin-6-yl)oxy)-5-fluoro-N,N-diisopropylbenzamide] showed an IC50 of less than 100 nM. In the case of CC(C)N(C(=O)c1cc(F)ccc1Oc1nncnc1N1CC2(CCN(C[C@@H]3CC[C@@H](NS(=O)(=O)N4CCC4)CO3)CC2)C1)C(C)C [Example 199, 2-((5-(7-(((2S,5R)-5-(Azetidine-1-sulfonamido)tetrahydro-2H-pyran-2-yl)methyl)-2,7-diazaspiro[3.5]nonan-2-yl)-1,2,4-triazin-6-yl)oxy)-5-fluoro-N,N-diisopropylbenzamide], the IC50 is reported as less than 100 nM. C[C@@H]1COC[C@@H](C)N1C(=O)c1cc(F)ccc1Oc1cncnc1N1CC2(CCN(C[C@@H]3CC[C@@H](NS(=O)(=O)N4CCC[C@@H]4C)CO3)CC2)C1 [Example 209, (S)-N-((3R,6S)-6-((2-(5-(2-((3R,5R)-3,5-Dimethylmorpholine-4-carbonyl)-4-fluorophenoxy)pyrimidin-4-yl)-2,7-diazaspiro[3.5]nonan-7-yl)methyl)tetrahydro-2H-pyran-3-yl)-2-methylpyrrolidine-1-sulfonamide] was tested, and the IC50 was less than 100 nM. CC(C)N(CC(F)F)C(=O)c1cc(F)ccc1Oc1cncnc1N1CC2(CCN(C[C@@H]3CC[C@@H](NS(=O)(=O)N(C)CCCO)CO3)CC2)C1 [Example 214, N-(2,2-difluoroethyl)-5-fluoro-2-((4-(7-(((2S,5R)-5-((N-(3-hydroxypropyl)-N-methylsulfamoyl)amino)tetrahydro-2H-pyran-2-yl)methyl)-2,7-diazaspiro[3.5]nonan-2-yl)pyrimidin-5-yl)oxy)-N-isopropylbenzamide] was tested, and the IC50 was less than 100 nM. For CCN(C(=O)c1cc(F)ccc1Oc1cncnc1N1CC2(CCN(C[C@@H]3CC[C@@H](NC(=O)Nc4ccccc4)CO3)CC2)C1)C(C)C [Example 215, N-Ethyl-5-fluoro-N-isopropyl-2-((4-(7-(((2S,5R)-5-(3-phenylureido)tetrahydro-2H-pyran-2-yl)methyl)-2,7-diazaspiro[3.5]nonan-2-yl)pyrimidin-5-yl)oxy)benzamide], the IC50 was 100 to 1000 nM. With CCN(C(=O)c1cc(F)ccc1Oc1cnc(C)nc1N1CC2(CCN(C[C@@H]3CC[C@@H](NS(=O)(=O)CC)CO3)CC2)C1)C(C)C [Example 216, N-Ethyl-2-((4-(7-(((2S,5R)-5-(ethylsulfonamido)tetrahydro-2H-pyran-2-yl)methyl)-2,7-diazaspiro[3.5]nonan-2-yl)-2-methylpyrimidin-5-yl)oxy)-5-fluoro-N-isopropylbenzamide] the IC50 was 100 to 1000 nM. Compound C=CS(=O)(=O)N[C@@H]1CC[C@@H](CN2CCC3(CC2)CN(c2ncncc2Oc2ccc(F)cc2C(=O)N(CC)C(C)C)C3)OC1 [Example 219, N-Ethyl-5-fluoro-N-isopropyl-2-((4-(7-(((2S,5R)-5-(vinylsulfonamido)tetrahydro-2H-pyran-2-yl)methyl)-2,7-diazaspiro[3.5]nonan-2-yl)pyrimidin-5-yl)oxy)benzamide] has an IC50 of less than 100 nM. CCN(C(=O)c1cc(F)ccc1Oc1cncnc1N1CC2(CCN(C[C@@H]3CC[C@@H](NS(=O)(=O)CCN(C)C)CO3)CC2)C1)C(C)C [Example 220, 2-((4-(7-(((2S,5R)-5-((2-(Dimethylamino)ethyl)sulfonamido)tetrahydro-2H-pyran-2-yl)methyl)-2,7-diazaspiro[3.5]nonan-2-yl)pyrimidin-5-yl)oxy)-N-ethyl-5-fluoro-N-isopropylbenzamide] was tested, and the IC50 was 100 to 1000 nM. For CC(C)N(C(=O)c1cc(F)ccc1Oc1cncnc1N1CC2(CCN(C[C@@H]3CC[C@@H](NS(=O)(=O)N4CC5(CCO5)C4)CO3)CC2)C1)C(C)C [Example 221, 2-((4-(7-(((2S,5R)-5-(1-Oxa-6-azaspiro[3.3]heptane-6-sulfonamido)tetrahydro-2H-pyran-2-yl)methyl)-2,7-diazaspiro[3.5]nonan-2-yl)pyrimidin-5-yl)oxy)-5-fluoro-N,N-diisopropylbenzamide], the IC50 was less than 100 nM. Compound CC(C)N(C(=O)c1cc(F)ccc1Oc1cncnc1N1CC2(CCN(C[C@@H]3CC[C@@H](NS(=O)(=O)N4CC5(COC5)C4)CO3)CC2)C1)C(C)C [Example 222, 2-((4-(7-(((2S,5R)-5-(2-Oxa-6-azaspiro[3.3]heptane-6-sulfonamido)tetrahydro-2H-pyran-2-yl)methyl)-2,7-diazaspiro[3.5]nonan-2-yl)pyrimidin-5-yl)oxy)-5-fluoro-N,N-diisopropylbenzamide] has an IC50 of less than 100 nM. Work on CC(C)N(C(=O)c1cc(F)ccc1Oc1cncnc1N1CC2(CCN(C[C@@H]3CC[C@@H](NS(=O)(=O)N4CC5(CCOC5)C4)CO3)CC2)C1)C(C)C [Example 223, 2-((4-(7-(((2S,5R)-5-(6-Oxa-2-azaspiro[3.4]octane-2-sulfonamido)tetrahydro-2H-pyran-2-yl)methyl)-2,7-diazaspiro[3.5]nonan-2-yl)pyrimidin-5-yl)oxy)-5-fluoro-N,N-diisopropylbenzamide] yielded an IC50 of less than 100 nM. CC(C)N(CC(F)F)C(=O)c1cc(F)ccc1Oc1cncnc1N1CC2(CCN(C[C@@H]3CC[C@@H](NS(=O)(=O)N(C)CCO)CO3)CC2)C1 [Example 239, N-(2,2-difluoroethyl)-5-fluoro-2-((4-(7-(((2S,5R)-5-((N-(2-hydroxyethyl)-N-methylsulfamoyl)amino)tetrahydro-2H-pyran-2-yl)methyl)-2,7-diazaspiro[3.5]nonan-2-yl)pyrimidin-5-yl)oxy)-N-isopropylbenzamide] showed an IC50 of less than 100 nM. In the case of CC(C)N(CC(F)F)C(=O)c1cc(F)ccc1Oc1cncnc1N1CC2(CCN(C[C@@H]3CC[C@@H](NS(N)(=O)=O)CO3)CC2)C1 [Example 240, N-(2,2-Difluoroethyl)-5-fluoro-N-isopropyl-2-((4-(7-(((2S,5R)-5-(sulfamoylamino)tetrahydro-2H-pyran-2-yl)methyl)-2,7-diazaspiro[3.5]nonan-2-yl)pyrimidin-5-yl)oxy)benzamide], the IC50 is reported as less than 100 nM. CCS(=O)(=O)N[C@@H]1CC[C@@H](CN2CCC3(CC2)CN(c2ncncc2Oc2ccc(F)cc2C(=O)N(CCC(F)F)C(C)C)C3)OC1 [Example 242, N-(3,3-Difluoropropyl)-2-((4-(7-(((2S,5R)-5-(ethylsulfonamido)tetrahydro-2H-pyran-2-yl)methyl)-2,7-diazaspiro[3.5]nonan-2-yl)pyrimidin-5-yl)oxy)-5-fluoro-N-isopropylbenzamide] gave an IC50 of less than 100 nM. In the case of CC(C)N(C(=O)c1cc(F)ccc1Oc1cncnc1N1CC2(CCN(C[C@@H]3CC[C@@H](NS(=O)(=O)C4CC4)CO3)CC2)C1)C1COC1 [Example 247, 2-((4-(7-(((2S,5R)-5-(Cyclopropanesulfonamido)tetrahydro-2H-pyran-2-yl)methyl)-2,7-diazaspiro[3.5]nonan-2-yl)pyrimidin-5-yl)oxy)-5-fluoro-N-isopropyl-N-(oxetan-3-yl)benzamide], the IC50 is reported as less than 100 nM. Work on CC(C)N(C(=O)c1cc(F)ccc1Oc1cncnc1N1CC2(CCN(C[C@@H]3CC[C@@H](NS(=O)(=O)N4CCC4)CO3)CC2)C1)C1COC1 [Example 248, 2-((4-(7-(((2S,5R)-5-(Azetidine-1-sulfonamido)tetrahydro-2H-pyran-2-yl)methyl)-2,7-diazaspiro[3.5]nonan-2-yl)pyrimidin-5-yl)oxy)-5-fluoro-N-isopropyl-N-(oxetan-3-yl)benzamide] yielded an IC50 of less than 100 nM. CC(C)N(C(=O)c1cc(F)ccc1Oc1cncnc1N1CC2(CCN(C[C@@H]3CC[C@@H](NS(=O)(=O)N(C)C)CO3)CC2)C1)C1COC1 [Example 249, 2-((4-(7-(((2S,5R)-5-((N,N-Dimethylsulfamoyl)amino)tetrahydro-2H-pyran-2-yl)methyl)-2,7-diazaspiro[3.5]nonan-2-yl)pyrimidin-5-yl)oxy)-5-fluoro-N-isopropyl-N-(oxetan-3-yl)benzamide] gave an IC50 of less than 100 nM. CCS(=O)(=O)N[C@@H]1CC[C@@H](CN2CCC3(CC2)CN(c2ncncc2Oc2ccc(F)cc2C(=O)N(C(C)C)C2CCOCC2)C3)OC1 [Example 250, 2-((4-(7-(((2S,5R)-5-(Ethylsulfonamido)tetrahydro-2H-pyran-2-yl)methyl)-2,7-diazaspiro[3.5]nonan-2-yl)pyrimidin-5-yl)oxy)-5-fluoro-N-isopropyl-N-(tetrahydro-2H-pyran-4-yl)benzamide] showed an IC50 of less than 100 nM. For CCS(=O)(=O)N[C@@H]1CC[C@@H](CN2CCC3(CC2)CN(c2ncncc2Oc2ccc(F)cc2C(=O)N(C(C)C)[C@@H]2C[C@@H]4CC[C@H]2O4)C3)OC1 [Example 251, N-((1R,2R,4S)-7-Oxabicyclo[2.2.1]heptan-2-yl)-2-((4-(7-(((2S,5R)-5-(ethylsulfonamido)tetrahydro-2H-pyran-2-yl)methyl)-2,7-diazaspiro[3.5]nonan-2-yl)pyrimidin-5-yl)oxy)-5-fluoro-N-isopropylbenzamide], the IC50 was less than 100 nM. CCS(=O)(=O)N[C@@H]1CC[C@@H](CN2CCC3(CC2)CN(c2ncncc2Oc2ccc(F)cc2C(=O)N(C(C)C)C2CC4(COC4)C2)C3)OC1 [Example 252, 2-((4-(7-(((2S,5R)-5-(Ethylsulfonamido)tetrahydro-2H-pyran-2-yl)methyl)-2,7-diazaspiro[3.5]nonan-2-yl)pyrimidin-5-yl)oxy)-5-fluoro-N-isopropyl-N-(2-oxaspiro[3.3]heptan-6-yl)benzamide] was tested, and the IC50 was less than 100 nM.
